Read-outs that look alike come from different tables or passages of the source.
Experiments:
[1] = cited from earlier work
[2] = system: isolated rat liver mitochondria; experiment: Mitochondrial inner membrane potential (MMP), Rhodamine 123; format: biochemical; details: difference in signal between KI and DMSO treated samples at the end of experiments
Text: Fig. 3 KI effects on mitochondrial inner membrane potential (MMP). […] In a, c, data are means and standard derivations from three separate experiments. *p < 0.05 as compared to DMSO-treated samples at the end of experiments. In b, data are means of two independent experiments

[3] = system: isolated rat liver mitochondria; experiment: Mitochondrial oxygen consumption (glutamate/malate or succinate driven, state 4 and state 3); format: biochemical; details: for Glutamate/malate driven respiration State 3 / Glutamate/malate driven respiration State 4 / Succinate-driven respiration State 3 / Succinate-driven respiration State 4: oxygen consumption, DMSO-treated = 1; on State 3 respiration driven by succinate at 10XCmax: key: 0 indicates that the drug had no effects (negative); on State 3 respiration driven by succinate at 1XCmax: key: 0 indicates that the drug had no effects (negative)
Method in brief: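 Rat liver mitochondria (1 mg/ml protein) exposed 5 min to kinase inhibitors in 0.1% DMSO, then O2 consumption measured by Clark-type electrode with glutamate/malate or succinate (state 4), ADP added after 3 min (state 3). Rates normalized to 0.1% DMSO controls set to 1.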

[4] = system: isolated rat liver mitochondria; experiment: Mitochondrial ROS production (CM-H2DCFDA); details: DMSO treated samples set as 1
RCC I = RCC I activity in submitochondrial particles; format: biochemical, rat; design: key to RCC I at 10XCmax / RCC I at 100XCmax / RCC I at 50XCmax / RCC I at 30XCmax / RCC I at 20XCmax: activity relative to DMSO-treated controls (control set as 1 = 100%); details: 10XCmax; DMSO treated samples set as 1
Method in brief: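 Abs 340 nm (I/V) or 600 nm (II), 1-min reads × 6 min; 550 nm (III, IV), 10-s reads × 2 min. RCC I = rotenone-free minus rotenone rate. DMSO control = 1.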

[5] = system: isolated rat liver mitochondria; details: positive control alamethicin treated samples
RCC III = RCC III activity in submitochondrial particles; format: biochemical, rat; design: key to RCC III at 100XCmax: activity relative to DMSO-treated controls (control set as 1 = 100%); details: 100XCmax
Method in brief: (§1)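 Kinase inhibitors were preincubated 15 min with submitochondrial particles (1 mg/ml) before complex activities were measured. RCC I was the rotenone-sensitive portion (activity without minus with rotenone). RCC I/V was read at 340 nm and RCC II at 600 nm every 1 min for 6 min. RCC III and IV were read at 550 nm every 10 s for 2 min. Activities are normalized to DMSO controls set as 1.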

RCC V = RCC V activity in submitochondrial particles; format: biochemical, rat; details: DMSO treated samples set as 1; on RCC V at 5XCmax: key: 0 indicates that the drug had no effects (negative)
Method in brief: as §1

RCC II = molecular target: T1, RCC II (Rattus norvegicus, UniProt P21913+Q641Z9+Q6PCT8+Q920L2); experiment: RCC II activity in submitochondrial particles; format: biochemical; design: key: activity relative to DMSO-treated controls (control set as 1 = 100%); details: DMSO treated samples set as 1
T1 construct: Submitochondrial particles were prepared by subjecting the intact mitochondria to three successive freeze–thaw cycles; from tissue; host or cells: rat liver mitochondria, used as submitochondrial particles
T1 sequence (Q920L2 35-656): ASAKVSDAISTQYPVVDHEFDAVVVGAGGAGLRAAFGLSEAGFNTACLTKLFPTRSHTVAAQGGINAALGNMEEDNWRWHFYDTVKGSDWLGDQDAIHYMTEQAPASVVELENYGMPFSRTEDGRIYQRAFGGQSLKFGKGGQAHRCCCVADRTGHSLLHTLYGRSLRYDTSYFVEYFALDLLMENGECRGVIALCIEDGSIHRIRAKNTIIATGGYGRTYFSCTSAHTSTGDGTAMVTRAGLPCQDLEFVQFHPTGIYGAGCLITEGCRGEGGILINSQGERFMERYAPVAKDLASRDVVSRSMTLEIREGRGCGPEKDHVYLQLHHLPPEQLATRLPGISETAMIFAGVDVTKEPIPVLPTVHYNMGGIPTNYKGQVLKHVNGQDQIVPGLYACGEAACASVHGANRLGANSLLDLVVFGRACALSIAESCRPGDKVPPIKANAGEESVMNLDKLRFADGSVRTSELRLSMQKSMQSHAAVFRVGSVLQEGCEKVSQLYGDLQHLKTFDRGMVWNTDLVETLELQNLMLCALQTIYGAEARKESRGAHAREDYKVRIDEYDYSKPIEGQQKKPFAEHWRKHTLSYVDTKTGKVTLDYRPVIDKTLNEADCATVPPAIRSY
T1 sequence (P21913 31-282): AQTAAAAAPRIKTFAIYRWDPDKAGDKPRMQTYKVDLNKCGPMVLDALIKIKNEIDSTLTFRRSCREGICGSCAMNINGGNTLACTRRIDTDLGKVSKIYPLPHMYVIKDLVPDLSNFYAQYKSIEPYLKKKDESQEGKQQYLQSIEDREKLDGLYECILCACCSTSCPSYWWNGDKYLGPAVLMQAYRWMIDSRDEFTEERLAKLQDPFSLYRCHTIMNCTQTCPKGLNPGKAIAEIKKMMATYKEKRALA
T1 sequence (Q641Z9 1-169): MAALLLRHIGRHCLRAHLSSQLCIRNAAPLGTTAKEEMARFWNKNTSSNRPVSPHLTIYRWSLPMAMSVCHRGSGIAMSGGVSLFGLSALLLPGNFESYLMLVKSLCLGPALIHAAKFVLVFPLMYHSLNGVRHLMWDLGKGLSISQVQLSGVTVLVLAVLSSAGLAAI
T1 sequence (Q6PCT8 57-159): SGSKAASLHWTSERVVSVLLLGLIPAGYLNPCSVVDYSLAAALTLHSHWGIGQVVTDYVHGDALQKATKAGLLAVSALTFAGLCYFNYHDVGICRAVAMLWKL
Method in brief: as §1

[6] = 1XCmax, DMSO treated samples set as 1
[7] = 2.5XCmax, DMSO treated samples set as 1
[8] = 5XCmax, DMSO treated samples set as 1
[9] = 10XCmax, DMSO treated samples set as 1
[10] = 20XCmax, DMSO treated samples set as 1
[11] = 30XCmax, DMSO treated samples set as 1
[12] = 50XCmax, DMSO treated samples set as 1
[13] = 100XCmax, DMSO treated samples set as 1

Structure (SMILES): CC[C@H](Nc1ncnc2[nH]cnc12)c1nc2cccc(F)c2c(=O)n1-c1ccccc1 [Idelalisib]
- Cmax ([1]; human therapeutic Cmax at FDA recommended dosages, ref product labeling and drug approval packages at the official FDA website): 4.64 µM
- Cmax (ng or µg/ml) ([1]; human therapeutic maximal blood concentration, ref product labeling): 1.927 µg/mL
- Cmax ([1]; read-out: Cmax at µM, human therapeutic maximal blood concentration, ref product labeling): 4.64 µM
- MMP measured by Rhodamine 123 at 1XCmax ([2]; 1XCmax): 0
- MMP measured by Rhodamine 123 at 2.5XCmax ([2]; 2.5XCmax): 0
- MMP measured by Rhodamine 123 at 5XCmax ([2]; 5XCmax): 0
- MMP measured by Rhodamine 123 at 10XCmax ([2]; 10XCmax): 0
- MMP measured by Rhodamine 123 at 20XCmax ([2]; 20XCmax): 0
- MMP measured by Rhodamine 123 at 30XCmax ([2]; 30XCmax): 0
- MMP measured by Rhodamine 123 at 50XCmax ([2]; 50XCmax): 0
- MMP measured by Rhodamine 123 at 100XCmax ([2]; 100XCmax): 0
- State 3 respiration driven by succinate at 1XCmax [3, 6]: 0
- State 4 respiration driven by succinate at 1XCmax [3, 6]: 0
- State 3 respiration driven by succinate at 2.5XCmax [3, 7]: 0
- State 4 respiration driven by succinate at 2.5XCmax [3, 7]: 0
- State 3 respiration driven by succinate at 5XCmax [3, 8]: 0
- State 4 respiration driven by succinate at 5XCmax [3, 8]: 0
- State 3 respiration driven by succinate at 10XCmax [3, 9]: 0
- State 4 respiration driven by succinate at 10XCmax [3, 9]: 0
- State 3 respiration driven by succinate at 20XCmax [3, 10]: 0
- State 4 respiration driven by succinate at 20XCmax [3, 10]: 0
- State 3 respiration driven by succinate at 30XCmax [3, 11]: 0
- State 4 respiration driven by succinate at 30XCmax [3, 11]: 0
- Glutamate/malate driven respiration State 3 ([3]; 50-fold Cmax): 0.76 ± 0.04
- Glutamate/malate driven respiration State 4 ([3]; 50-fold Cmax): 1.00 ± 0.08
- Succinate-driven respiration State 3 ([3]; 50-fold Cmax): 0.83 ± 0.06
- Succinate-driven respiration State 4 ([3]; 50-fold Cmax): 0.97 ± 0.04
- State 3 respiration driven by glutamate/malate at 50XCmax [3, 12]: 0.76±0.04
- State 3 respiration driven by succinate at 50XCmax [3, 12]: 0
- State 4 respiration driven by succinate at 50XCmax [3, 12]: 0
- Glutamate/malate driven respiration State 3 ([3]; 100-fold Cmax): 0.66 ± 0.03
- Glutamate/malate driven respiration State 4 ([3]; 100-fold Cmax): 1.13 ± 0.05
- Succinate-driven respiration State 3 ([3]; 100-fold Cmax): 0.65 ± 0.03
- Succinate-driven respiration State 4 ([3]; 100-fold Cmax): 1.05 ± 0.01
- State 3 respiration driven by glutamate/malate at 100XCmax [3, 13]: 0.66±0.03
- State 3 respiration driven by succinate at 100XCmax [3, 13]: 0.65±0.03
- State 4 respiration driven by succinate at 100XCmax [3, 13]: 0
- lowest concentration significantly affecting mitochondrial oxygen consumption ([3]; tested at 1 to 100-fold Cmax): 50 fold Cmax
- ROS measured by CM-H2DCFDA at 1XCmax ([4]; 1XCmax): 0
- ROS measured by CM-H2DCFDA at 2.5XCmax ([4]; 2.5XCmax): 0
- ROS measured by CM-H2DCFDA at 5XCmax ([4]; 5XCmax): 0
- ROS measured by CM-H2DCFDA at 10XCmax ([4]; 10XCmax): 0
- ROS measured by CM-H2DCFDA at 20XCmax ([4]; 20XCmax): 0
- ROS measured by CM-H2DCFDA at 30XCmax ([4]; 30XCmax): 0
- ROS measured by CM-H2DCFDA at 50XCmax ([4]; 50XCmax): 0
- ROS measured by CM-H2DCFDA at 100XCmax ([4]; 100XCmax): 0
- RCC I at 10XCmax (RCC I): 0
- Cytochrome c release 1XCmax ([5]; 1XCmax): 0
- Cytochrome c release 2.5XCmax ([5]; 2.5XCmax): 0
- Cytochrome c release 5XCmax ([5]; 5XCmax): 0
- Cytochrome c release 10XCmax ([5]; 10XCmax): 0
- Cytochrome c release 20XCmax ([5]; 20XCmax): 0
- Cytochrome c release 30XCmax ([5]; 30XCmax): 0
- Cytochrome c release 50XCmax ([5]; 50XCmax): 0
- Cytochrome c release 100XCmax ([5]; 100XCmax): 0
- RCC III at 100XCmax (RCC III): 0
- RCC V at 5XCmax (RCC V; 5XCmax): 0
- RCC V at 50XCmax (RCC V; 50XCmax): 0
- RCC II at 1.0XCmax (RCC II; 1.0XCmax): 0
- RCC II at 2.5XCmax (RCC II; 2.5XCmax): 0
- RCC II at 5XCmax (RCC II; 5XCmax): 0
- RCC II at 10XCmax (RCC II; 10XCmax): 0
- RCC II at 20XCmax (RCC II; 20XCmax): 0
- RCC II at 30XCmax (RCC II; 30XCmax): 0
- RCC II at 50XCmax (RCC II; 50XCmax): 0
- RCC II at 100XCmax (RCC II; 100XCmax): 0
